Values after ≈ are worked out from the molar mass of the structure shown.
Legend:
Type in all cases: cell-based
[1] = tested on: A. baumannii; experiment: Broth dilution MIC determination (CLSI) against A. baumannii strains; settings: for MIC A. baumannii ATCC19606: ATCC19606, Strain No. MP-15
Description: (§1) Minimum inhibitory concentrations (MICs) for macrolides described herein have been determined for unique strains of S. aureus, S. pneumoniae, S. pyogenes, E. faecalis, E. coli, A. baumannii, K. pneumoniae, P. aeruginosa, and H. influenzae, including several multidrug-resistant strains, with a special focus on macrolide resistant mechanisms. Azithromycin and solithromycin were included as control compounds. CLSI standard procedures for broth dilution MIC determination were used. Data for exemplary compounds described herein is shown in Tables M1-M7 and in Tables N1-N4.

[2] = tested on: E. coli; experiment: Broth dilution MIC determination (CLSI) against E. coli strains; settings: for MIC E. coli ATCC25922: ATCC25922, Strain No. MP-4; for MIC E. coli ATCC25922:tolC: Strain No. MP-9; for MIC E. coli clinical: Strain No. MP541; for MIC E. coli clinical-cErm: Strain No. MP532
Description: as §1

[3] = tested on: S. aureus; experiment: Broth dilution MIC determination (CLSI) against S. aureus strains; settings: for MIC S. aureus ATCC29213: ATCC29213, Strain No. MP-12; for MIC S. aureus ATCCBAA-977: ATCCBAA-977, Strain No. MP-17; for MIC S. aureus (MRSA) GISA USA600: GISA USA600, Strain No. MP-619 UNT-120; for MIC S. aureus (MRSA) ST-228 cErm: Strain No. MP-513; for MIC S. aureus (MRSA) USA100: USA100, Strain No. MP-618 UNT-096; for MIC S. aureus (MRSA) USA300: USA300, Strain No. MP-549; for MIC S. aureus (MRSA) ermA phenotype: Strain No. MP-620 UNT-146
Description: as §1

[4] = tested on: E. faecalis; experiment: Broth dilution MIC determination (CLSI) against E. faecalis strains; settings: for MIC E. faecalis ATCC29212: ATCC29212, Strain No. MP-24; for MIC E. faecalis van resistant: Strain No. UNT-039
Description: as §1

[5] = tested on: S. pyogenes; experiment: Broth dilution MIC determination (CLSI) against S. pyogenes strains; settings: for MIC S. pyogenes ATCC19615: ATCC19615, Strain No. MP-19; for MIC S. pyogenes mac resistant: Strain No. MP-625 UNT-014
Description: as §1

[6] = tested on: P. aeruginosa; experiment: Broth dilution MIC determination (CLSI) against P. aeruginosa strains; settings: for MIC P. aeruginosa ATCC27853: ATCC27853, Strain No. MP-3; for MIC P. aeruginosa PAO1: PAO1, Strain No. MP-7; for MIC P. aeruginosa PAO1:mex: Strain No. MP-8
Description: as §1

[7] = tested on: S. pneumoniae; experiment: Broth dilution MIC determination (CLSI) against S. pneumoniae strains; settings: for MIC S. pneumoniae ATCC49619: ATCC49619, Strain No. MP-21
Description: as §1

[8] = tested on: K. pneumoniae; experiment: Broth dilution MIC determination (CLSI) against K. pneumoniae strains; settings: for MIC K. pneumoniae ATCC10031: ATCC10031, Strain No. MP-14
Description: as §1, with “used.” for “used. Data for exemplary compounds described herein is shown in Tables M1-M7 and in Tables N1-N4.”

CCC1OC(=O)C(C)C(=O)C(C)C(OC2OC(C)CC(N(C)Cc3cccnc3)C2O)C(C)(OC)CC(C)CNC(C)C2N(CCCCn3cc(-c4cccc(N)c4)nn3)C(=O)OC12C (stereo not drawn) [FSM-120385]
MIC ([1]; A. baumannii ATCC19606, strain MP-15 (Table N2)): 16 µg/mL (≈ 17.7 µM)
MIC ([1]; A. baumannii clinical, strain MP576 (Table N2)): >64 µg/mL
MIC ([1]; A. baumannii clinical, strain MP577 (Table N2)): 64 µg/mL (≈ 70.7 µM)
MIC ([2]; E. coli ATCC25922, strain MP-4 (Table N2)): 64 µg/mL (≈ 70.7 µM)
MIC ([2]; E. coli ATCC25922:tolC, strain MP-9 (Table N2)): 4 µg/mL (≈ 4.42 µM)
MIC ([2]; E. coli clinical, strain MP541 (Table N2)): 64 µg/mL (≈ 70.7 µM)
MIC ([2]; E. coli clinical-cErm, strain MP532 (Table N2)): >64 µg/mL
MIC ([3]; S. aureus (MRSA) GISA USA600, strain MP-619 UNT-120 (Table N2)): >64 µg/mL
MIC ([3]; S. aureus (MRSA) ST-228 cErm, strain MP-513 (Table N2)): >64 µg/mL
MIC ([3]; S. aureus (MRSA) USA100, strain MP-618 UNT-096 (Table N2)): >64 µg/mL
MIC ([3]; S. aureus (MRSA) USA300, strain MP-549 (Table N2)): 16 µg/mL (≈ 17.7 µM)
MIC ([3]; S. aureus (MRSA) ermA phenotype, strain MP-620 UNT-146 (Table N2)): >64 µg/mL
MIC ([3]; S. aureus ATCC29213, strain MP-12 (Table N2)): 4 µg/mL (≈ 4.42 µM)
MIC ([3]; S. aureus ATCCBAA-977, strain MP-17 (Table N2)): 4 µg/mL (≈ 4.42 µM)
MIC ([4]; E. faecalis ATCC29212, strain MP-24 (Table N2)): 1 µg/mL (≈ 1.1 µM)
MIC ([4]; E. faecalis van resistant, strain UNT-039 (Table N2)): >64 µg/mL
MIC ([5]; S. pyogenes ATCC19615, strain MP-19 (Table N2)): <0.03 µg/mL
MIC ([5]; S. pyogenes mac resistant, strain MP-625 UNT-014 (Table N2)): 1 µg/mL (≈ 1.1 µM)
MIC ([6]; P. aeruginosa ATCC27853, strain MP-3 (Table N2)): >64 µg/mL
MIC ([6]; P. aeruginosa PAO1, strain MP-7 (Table N2)): >64 µg/mL
MIC ([6]; P. aeruginosa PAO1:mex, strain MP-8 (Table N2)): 32 µg/mL (≈ 35.4 µM)
MIC ([7]; S. pneumoniae ATCC49619, strain MP-21 (Table N2)): 0.06 µg/mL (≈ 0.0663 µM)
MIC ([7]; S. pneumoniae mefA, strain MP-626 UNT-038 (Table N2)): 0.125 µg/mL (≈ 0.138 µM)
MIC ([7]; S. pneumoniae mefA, strain MP-627 UNT-039 (Table N2)): 0.25 µg/mL (≈ 0.276 µM)
MIC ([8]; K pneumomae ATCC10031, strain MP-14 (Table N2)): 8 µg/mL (≈ 8.84 µM)
MIC ([8]; K. pneumoniae clinical, strain MP546 (Table N2)): >64 µg/mL
MIC ([8]; K. pneumoniae clinical, strain MP548 (Table N2)): >64 µg/mL

CCC1OC(=O)C(C)C(=O)C(C)C(OC2OC(CNCc3ccc(F)cc3)CC(N(C)C)C2O)C(C)(OC)CC(C)CNC(C)C2N(CCCCn3cc(-c4cccc(N)c4)nn3)C(=O)OC12C (stereo not drawn) [FSM-120391]
MIC A. baumannii ATCC19606 [1]: 64 µg/mL (≈ 67.3 µM)
MIC A. baumannii clinical ([1]; Strain No. MP576): >64 µg/mL
MIC A. baumannii clinical ([1]; Strain No. MP577): 16 µg/mL (≈ 16.8 µM)
MIC E. coli ATCC25922 [2]: 4 µg/mL (≈ 4.21 µM)
MIC E. coli ATCC25922:tolC [2]: 0.25 µg/mL (≈ 0.263 µM)
MIC E. coli clinical [2]: 8 µg/mL (≈ 8.41 µM)
MIC E. coli clinical-cErm [2]: >64 µg/mL
MIC S. aureus ATCC29213 [3]: 4 µg/mL (≈ 4.21 µM)
MIC S. aureus ATCCBAA-977 [3]: 4 µg/mL (≈ 4.21 µM)
MIC S. aureus (MRSA) GISA USA600 [3]: >64 µg/mL
MIC S. aureus (MRSA) ST-228 cErm [3]: >64 µg/mL
MIC S. aureus (MRSA) USA100 [3]: >64 µg/mL
MIC S. aureus (MRSA) USA300 [3]: 4 µg/mL (≈ 4.21 µM)
MIC S. aureus (MRSA) ermA phenotype [3]: >64 µg/mL
MIC E. faecalis ATCC29212 [4]: 1 µg/mL (≈ 1.05 µM)
MIC E. faecalis van resistant [4]: >64 µg/mL
MIC S. pyogenes ATCC19615 [5]: <0.03 µg/mL
MIC S. pyogenes mac resistant [5]: 0.5 µg/mL (≈ 0.526 µM)
MIC P. aeruginosa ATCC27853 [6]: 64 µg/mL (≈ 67.3 µM)
MIC P. aeruginosa PAO1 [6]: >64 µg/mL
MIC P. aeruginosa PAO1:mex [6]: 16 µg/mL (≈ 16.8 µM)
MIC S. pneumoniae ATCC49619 [7]: <0.03 µg/mL
MIC S. pneumoniae mefA ([7]; Strain No. MP-626 UNT-038): 0.06 µg/mL (≈ 0.0631 µM)
MIC S. pneumoniae mefA ([7]; Strain No. MP-627 UNT-039): 0.125 µg/mL (≈ 0.131 µM)
MIC K. pneumoniae ATCC10031 [8]: 4 µg/mL (≈ 4.21 µM)
MIC K. pneumoniae clinical ([8]; Strain No. MP546): 64 µg/mL (≈ 67.3 µM)
MIC K. pneumoniae clinical ([8]; Strain No. MP548): 32 µg/mL (≈ 33.6 µM)

CCC1OC(=O)C(C)C(=O)C(C)C(OC2OC(C)CC(n3ccnc3)C2O)C(C)(OC)CC(C)CNC(C)C2N(CCCCn3cc(-c4cccc(N)c4)nn3)C(=O)OC12C (stereo not drawn) [FSM-120394]
MIC A. baumannii ATCC19606 [1]: 64 µg/mL (≈ 75.2 µM)
MIC A. baumannii clinical ([1]; Strain No. MP576): >64 µg/mL
MIC A. baumannii clinical ([1]; Strain No. MP577): >64 µg/mL
MIC E. coli ATCC25922 [2]: >64 µg/mL
MIC E. coli ATCC25922:tolC [2]: 16 µg/mL (≈ 18.8 µM)
MIC E. coli clinical [2]: >64 µg/mL
MIC E. coli clinical-cErm [2]: >64 µg/mL
MIC S. aureus ATCC29213 [3]: >64 µg/mL
MIC S. aureus ATCCBAA-977 [3]: >64 µg/mL
MIC S. aureus (MRSA) GISA USA600 [3]: >64 µg/mL
MIC S. aureus (MRSA) ST-228 cErm [3]: >64 µg/mL
MIC S. aureus (MRSA) USA100 [3]: >64 µg/mL
MIC S. aureus (MRSA) USA300 [3]: >64 µg/mL
MIC S. aureus (MRSA) ermA phenotype [3]: >64 µg/mL
MIC E. faecalis ATCC29212 [4]: 4 µg/mL (≈ 4.7 µM)
MIC E. faecalis van resistant [4]: >64 µg/mL
MIC S. pyogenes ATCC19615 [5]: 0.5 µg/mL (≈ 0.588 µM)
MIC S. pyogenes mac resistant [5]: 4 µg/mL (≈ 4.7 µM)
MIC P. aeruginosa ATCC27853 [6]: >64 µg/mL
MIC P. aeruginosa PAO1 [6]: >64 µg/mL
MIC P. aeruginosa PAO1:mex [6]: >64 µg/mL
MIC S. pneumoniae ATCC49619 [7]: 0.5 µg/mL (≈ 0.588 µM)
MIC S. pneumoniae mefA ([7]; Strain No. MP-626 UNT-038): 0.5 µg/mL (≈ 0.588 µM)
MIC S. pneumoniae mefA ([7]; Strain No. MP-627 UNT-039): 0.25 µg/mL (≈ 0.294 µM)
MIC K. pneumoniae ATCC10031 [8]: 16 µg/mL (≈ 18.8 µM)
MIC K. pneumoniae clinical ([8]; Strain No. MP546): >64 µg/mL
MIC K. pneumoniae clinical ([8]; Strain No. MP548): >64 µg/mL
